Test results reported in patent US8778939B2, “Compounds” (Glaxo Group Limited, priority 2009, dated 2014).

What was measured:
[1] = target: T1, 6His-Tev-LRRK2 (1326-2527) (Homo sapiens, UniProt Q5S007); assay: LRRK2 peptide substrate assay; format: biochemical; settings: Biotin-LRRKtide peptide substrate, ATP at Km
T1 construct: A LRRK2 cDNA encoding residues 1326-2527 was received from Dundee University; made in house; host or cells: Spodoptera frugiperda (Sf9) insect cells, baculovirus
T1 sequence (Q5S007 1326-2527): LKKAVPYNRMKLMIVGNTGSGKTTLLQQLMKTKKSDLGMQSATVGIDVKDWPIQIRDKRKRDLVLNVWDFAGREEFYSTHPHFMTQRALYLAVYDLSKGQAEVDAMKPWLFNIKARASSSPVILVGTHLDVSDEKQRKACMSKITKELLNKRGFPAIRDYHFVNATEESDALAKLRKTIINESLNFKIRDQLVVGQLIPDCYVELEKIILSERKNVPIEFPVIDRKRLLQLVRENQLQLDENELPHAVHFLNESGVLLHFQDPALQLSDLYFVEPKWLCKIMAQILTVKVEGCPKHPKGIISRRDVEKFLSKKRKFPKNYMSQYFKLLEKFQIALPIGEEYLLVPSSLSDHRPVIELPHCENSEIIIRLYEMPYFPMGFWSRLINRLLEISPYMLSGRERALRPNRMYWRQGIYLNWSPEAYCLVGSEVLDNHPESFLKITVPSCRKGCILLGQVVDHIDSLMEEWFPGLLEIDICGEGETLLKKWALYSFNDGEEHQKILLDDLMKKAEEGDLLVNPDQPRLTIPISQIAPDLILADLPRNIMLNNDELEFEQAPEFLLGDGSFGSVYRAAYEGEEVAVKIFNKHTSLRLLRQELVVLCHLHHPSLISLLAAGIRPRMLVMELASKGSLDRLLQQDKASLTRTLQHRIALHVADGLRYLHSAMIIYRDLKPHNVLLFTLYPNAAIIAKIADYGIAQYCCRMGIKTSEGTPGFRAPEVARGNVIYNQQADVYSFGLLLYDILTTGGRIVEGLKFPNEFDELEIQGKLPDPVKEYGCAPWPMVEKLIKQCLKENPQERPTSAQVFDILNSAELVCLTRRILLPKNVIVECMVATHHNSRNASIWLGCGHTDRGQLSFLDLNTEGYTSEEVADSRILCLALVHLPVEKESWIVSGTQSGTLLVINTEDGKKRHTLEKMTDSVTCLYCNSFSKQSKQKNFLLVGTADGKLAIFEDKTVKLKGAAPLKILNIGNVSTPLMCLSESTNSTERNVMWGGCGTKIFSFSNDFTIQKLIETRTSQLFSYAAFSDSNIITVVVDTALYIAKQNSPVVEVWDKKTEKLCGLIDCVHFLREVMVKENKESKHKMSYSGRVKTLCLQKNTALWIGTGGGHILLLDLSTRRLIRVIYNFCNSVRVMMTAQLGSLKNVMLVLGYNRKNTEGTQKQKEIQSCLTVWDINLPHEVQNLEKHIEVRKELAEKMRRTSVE
Experimental: Compounds of formula (I) may be tested for in vitro kinase activity in accordance with the following assays, using the non natural, in vitro, substrates moesin and the Longer Biotin-LRRKtide. Moesin and a shorter version of the peptide were identified as substrates in Jaleel et al, (2007, Biochem J, 405: 307-317).
LRRK2 Peptide Substrate Assay
(§1) a) 100 nl of a 1:4 serial dilution of test compound with a top final assay concentration of 30 μM is added to certain wells in a low volume 384 well black plate. 100 nl of DMSO is used in certain wells as controls.
b) 3 μl enzyme solution (80 nM purified recombinant 6His-Tev-LRRK2 (1326-2527) in assay buffer: 50 mM Hepes (pH 7.2), 10 mM MgCl2, 150 mM NaCl, 5% glycerol, 0.0025% triton X-100 and 1 mM DTT) is added to certain wells. […] Plates are then incubated for a further 1-2 hours at room temperature (incubation time varies depending upon rate and linearity of reaction with differing enzyme batches). d) 6 μl detection solution (50 nM Streptavidin SureLight® APC (PerkinElmer), 4 nM Eu-W1024 labelled anti-rabbit IgG antibody (PerkinElmer), 1:500 dilution (dilution determined on a batch to batch basis) of Phospho-Ezrin (Thr567)/Radixin (Thr564)/Moesin (Thr558) Polyclonal Antibody (New England Biolabs) and 60 mM EDTA in buffer: 40 mM Hepes (pH 7.2), 150 mM NaCl, 0.03% BSA) is added to each well. Plates are then incubated for a further 2 hours at room temperature before reading on a suitable plate reader (Excitation 330 nm, emission 620 nm (Eu) and 665 nm (APC)). Data is analysed using ActivityBase software (IDBS). LRRK2 AlphaScreen Protein Substrate Assay

[2] = target: T1, 6His-Tev-LRRK2 (1326-2527); assay: LRRK2 AlphaScreen desensitised protein substrate assay; format: biochemical
Experimental: as §1
b) 3 μl enzyme solution (80 nM purified recombinant 6His-Tev-LRRK2 (1326-2527) in assay buffer: 50 mM Hepes (pH 7.2), 10 mM MgCl2, 150 mM NaCl, 5% glycerol, 0.0025% triton X-100 and 1 mM DTT) is added to certain wells.
Plates are then incubated for a further 1-2 hours at room temperature (incubation time varies depending upon rate and linearity of reaction with differing enzyme batches).
d) 6 μl detection solution (1:250 dilution of AlphaLisa Protein A Acceptor beads (PerkinElmer), 1:64 dilution of AlphaLisa Gluthathione Donor beads (PerkinElmer) and 1:600 dilution (dilution determined on a batch to batch basis) of Phospho-Ezrin (Thr567)/Radixin (Thr564)/Moesin (Thr558) Polyclonal Antibody (New England Biolabs) in a buffer: 50 mM Hepes (pH 7.5), 250 mM NaCl, 60 mM EDTA, 1% PEG and 0.01% Brij 35) is added to each well. Plates are then incubated for a further 2 hours at room temperature in the dark before reading on an EnVision™ plate reader with AlphaScreen HTS turbo option module and AlphaScreen settings. Data is analysed using ActivityBase software (IDBS).
LRRK2 AlphaScreen Desensitised Protein Substrate Assay
This is conducted as described for the LRRK2 alphascreen protein substrate assay, with the following differences: • 1. The concentration of ATP in the substrate solution was 2 mM. • 2. The plates were incubated for 20 minutes at room temperature following addition of the substrate solution. Pharmacological Data

[3] = read-out: pIC50 in the LRRK2 peptide substrate assay (converted)
[4] = excess of ATP present (2 mM ATP), read-out: pIC50 in the LRRK2 alphascreen desensitised protein substrate assay (converted)
[5] = mean pIC50, read-out: LRRK2 peptide substrate assay (pIC50) (converted)
[6] = mean pIC50, GST-PS-Moesin (400-577) substrate, 2 mM ATP (excess of ATP present), read-out: LRRK2 alphascreen desensitised protein substrate assay (pIC50) (converted)

Compound | IC50 [1, 3] [nM] | IC50 [1, 5] [nM] | IC50 [2, 4] [nM] | IC50 [2, 6] [nM]
CCOC(=O)CCc1ccc(OCc2ccccc2)c(C(=O)Nc2cccnc2)c1 [Example 87, Ethyl 3-{-4-[(phenylmethyl)oxy]-3-[(3-pyridinylamino)carbonyl]phenyl}propanoate] | ≤ 10 |  | ≤ 20000 | 
O=C(Nc1cccnc1)c1cc(-c2cccnc2)ccc1OCc1ccccc1 [Example 101, 2-[(Phenylmethyl)oxy]-N,5-di-3-pyridinylbenzamide] | ≤ 10 |  | ≤ 20000 | 
CN(C)Cc1ccc(OCc2ccccc2)c(C(=O)Nc2cccnc2)c1 [Example 71, 5-[(Dimethylamino)methyl]-2-[(phenylmethyl)oxy]-N-3-pyridinylbenzamide] | ≤ 100 |  | ≤ 20000 | 
O=C(Nc1cnoc1)c1cc(-c2ccncc2)ccc1OCc1ccccc1 [Example 63, N-4-Isoxazolyl-2-[(phenylmethyl)oxy]-5-(4-pyridinyl)benzamide] | ≤ 100 |  | ≤ 20000 | 
O=C(Nc1cccnc1)c1cc(OC[C@@H]2CCCN2)ccc1OCc1ccccc1 [Example 46, 2-[(Phenylmethyl)oxy]-N-3-pyridinyl-5-{[(2S)-2-pyrrolidinylmethyl]oxy}benzamide] | ≤ 100 |  | ≤ 20000 | 
C[C@@H]1CN(c2ccc(OCc3ccccc3)c(C(=O)Nc3cccnc3)c2)C[C@H](C)N1C [Example 103, 2-[(Phenylmethyl)oxy]-N-3-pyridinyl-5-[(3R,5S)-3,4,5-trimethyl-1-piperazinyl]benzamide] | ≤ 10 |  | ≤ 20000 | 
O=C(Nc1cccnc1)c1cc(-c2ccnc(F)c2)ccc1OCc1ccccc1 [Example 104, 5-(2-Fluoro-4-pyridinyl)-2-[(phenylmethyl)oxy]-N-3-pyridinylbenzamide] | ≤ 10 |  | ≤ 20000 | 
O=C(Nc1cncc(F)c1)c1cc(-c2ccncc2)ccc1OCc1ccccc1 [Example 102, N-(5-Fluoro-3-pyridinyl)-2-[(phenylmethyl)oxy]-5-(4-pyridinyl)benzamide] | ≤ 100 |  | > 25100 | 
COC(=O)NCc1ccc(OCc2ccccc2)c(C(=O)Nc2cccnc2)c1 [Example 86, Methyl ({4-[(phenylmethyl)oxy]-3-[(3-pyridinylamino)carbonyl]phenyl}methyl)carbamate] | ≤ 10 |  | ≤ 20000 | 
O=C(Nc1cn[nH]c1)c1cc(Br)ccc1OCc1ccccc1 [Example 51, 5-Bromo-2-[(phenylmethyl)oxy]-N-1H-pyrazol-4-ylbenzamide] | ≤ 100 |  | ≤ 20000 | 
CC(C)(O)c1ccc(OCc2ccccc2)c(C(=O)Nc2cccnc2)c1 [Example 76, 5-(1-Hydroxy-1-methylethyl)-2-[(phenylmethyl)oxy]-N-3-pyridinylbenzamide] | ≤ 10 |  | ≤ 20000 | 
O=C(Nc1cccnc1)c1cc(CN2CCOCC2)ccc1OCc1ccccc1 [Example 69, 5-(4-Morpholinylmethyl)-2-[(phenylmethyl)oxy]-N-3-pyridinylbenzamide] | ≤ 100 | 15.8 | ≤ 20000 | 501

More lines, main results first:

IC50 [1, 3] [nM] | IC50 [1, 5] [nM] | Compound | IC50 [2, 4] [nM] | IC50 [2, 6] [nM]
≤ 100 |  | O=C(Nc1cccnc1)c1cc(CN2CCOCC2)ccc1OCc1ccc(F)c(F)c1 [Example 112, 2-{[(3,4-Difluorophenyl)methyl]oxy}-5-(4-morpholinylmethyl)-N-3-pyridinylbenzamide] | ≤ 20000 | 
≤ 100 |  | Cn1cc(-c2ccc(OCc3ccccc3C#N)c(C(=O)Nc3cccnc3)c2)cn1 [Example 113, 2-{[(2-Cyanophenyl)methyl]oxy}-5-(1-methyl-1H-pyrazol-4-yl)-N-3-pyridinylbenzamide] | ≤ 20000 | 
≤ 100 |  | Cn1cc(-c2ccc(OCc3ccc(F)c(F)c3)c(C(=O)Nc3cccnc3)c2)cn1 [Example 110, 2-{[(3,4-Difluorophenyl)methyl]oxy)-5-(1-methyl-1H-pyrazol-4-yl)-N-3-pyridinylbenzamide] | ≤ 20000 | 
≤ 100 |  | O=C(Nc1ccnnc1)c1cc(-c2ccncc2)ccc1OCc1ccc(F)c(F)c1 [Example 106, 2-([(3,4-Difluorophenyl)methyl]oxy)-N-4-pyridazinyl-5-(4-pyridinyl)benzamide] | ≤ 20000 | 
≤ 100 |  | O=C(Nc1ccnnc1)c1cc(-c2cn[nH]c2)ccc1OCc1ccc(F)c(F)c1 [Example 108, 2-{[(3,4-Difluorophenyl)methyl]oxy}-5-(1H-pyrazol-4-yl)-N-4-pyridazinylbenzamide] | ≤ 20000 | 
≤ 100 |  | Nc1cc(-c2ccc(OCc3ccccc3)c(C(=O)Nc3cccnc3)c2)ccn1 [Example 122, 5-(2-Amino-4-pyridinyl)-2-[(phenylmethyl)oxy]-N-3-pyridinylbenzamide] | ≤ 20000 | 
≤ 10 | 3.16 | COCCn1cc(-c2ccc(OCc3ccc(F)cc3)c(C(=O)Nc3cccnc3)c2)cn1 [Example 130, 2-{[(4-Fluorophenyl)methyl]oxy}-5-{1-[2-(methyloxy)ethyl]-1H-pyrazol-4-yl}-N-3-pyridinylbenzamide] | ≤ 20000 | 31.6
≤ 100 |  | Cn1cc(-c2ccc(OCc3ccc(F)c(F)c3)c(C(=O)Nc3ccnnc3)c2)cn1 [Example 105, 2-{[(3,4-Difluorophenyl)methyl]oxy}-5-(1-methyl-1H-pyrazol-4-yl)-N-4-pyridazinylbenzamide] | ≤ 20000 | 
